Assay results taken from patent US20160215348A1, “GENE EXPRESSION BIOMARKERS AND THEIR USE FOR DIAGNOSTIC AND PROGNOSTIC APPLICATION IN PATIENTS POTENTIALLY IN NEED OF HDAC INHIBITOR TREATMENT” (4SC AG, priority 2013, published 2016).

Tests used:
Format in all cases: cell-based, human
Conditions in all cases: standardized to 0 h
DPP3 [1] = test: Gene expression in peripheral blood of healthy donors treated ex vivo
Description: (§1) Hatched columns relate to blood, black columns relate to HepG2 cells, white boxes relate to HT 29 cells. Values are standardized to the value at 0 h.
(§2) Samples were obtained and gene expressions were determined with the methods as described herein below. The results are shown in below table 3 and FIGS. 2 and 3
(§3) The above values represent a mean value which was determined on the basis of 2 biological replicates, for each of which 3 technical replicates were prepared. […] The level of gene expression determined in peripheral blood samples can be correlated with a certain level of activity of HDAC in the diseased cells, e.g. by applying an appropriate conversion factor or conversion table, which may be determined for each specific disease, and/or patient group.
(§4) The High-Capacity cDNA Reverse Transcription Kit (Applied Biosystems) was used for reverse transcription of total RNA into single stranded cDNA with the aid of random hexamer primers according to the manufacturer's instructions. Briefly, for the reaction mix total RNA was mixed with random primers in excess, 4 mM dNTP Mix, 2.5 U/reaction, reverse transcriptase and nuclease free water. The reverse transcription took place in a thermal cycler under the following conditions: 25° C. for 10 min, 37° C. for 120 min, 85° C. for 5 min, followed by 4° C. for cooling down the reaction. The reverse transcription can be done in principle as well with other reverse transcriptases, primers and temperature protocols. Whenever possible, 250 ng total RNA were reverse transcribed if not available, lower amounts were used.
(§5) Custom TaqMan® Arrays (Applied Biosystems) in Format 16 were designed for the gene expression analysis of biomarkers of the present invention and housekeeping genes as outlined in table 4. These arrays allow for qPCR analysis of 8 samples per card. Of course, all reactions can be done as well by conventional qPCR analysis with specific primers.

KDELC2 [2] = test: as above
Description: as §1, §2, §3, §4, §5

18S [3] = test: as above
Description: as §1, §2, §3, §4, §5

CCDC43 [4] = test: as above
Description: as §1, §2, §3, §4, §5

GAPDH [5] = test: as above
Description: as §1, §2, §3, §4, §5

MICALL1 [6] = test: as above
Description: as §1, §2, §3, §4, §5

TBP [7] = test: as above
Description: as §1, §2, §3, §4, §5

ZFP64 [8] = test: as above
Description: as §1, §2, §3, §4, §5

HIST2H4A/B [9] = test: as above
Description: as §1, §2, §3, §4, §5

DPP3 [10] = test: Gene expression in HepG2 cancer cells (in vitro)
Description: as §1, §2, §3
(§6) To determine RNA expression levels of ZFP64 in different cancer cell lines and PBMC, the cell membranes were chemically disrupted with a buffer containing guanidine isothiocycanate, which lyses the cells and supports the binding of RNA to a silica membrane and RNA was extracted via a filter-based spin column.
as §4, §5

KDELC2 [11] = test: Gene expression in HepG2 cancer cells (in vitro)
Description: as §1, §2, §3, §6, §4, §5

18S [12] = test: Gene expression in HepG2 cancer cells (in vitro)
Description: as §1, §2, §3, §6, §4, §5

CCDC43 [13] = test: Gene expression in HepG2 cancer cells (in vitro)
Description: as §1, §2, §3, §6, §4, §5

GAPDH [14] = test: Gene expression in HepG2 cancer cells (in vitro)
Description: as §1, §2, §3, §6, §4, §5

MICALL1 [15] = test: Gene expression in HepG2 cancer cells (in vitro)
Description: as §1, §2, §3, §6, §4, §5

TBP [16] = test: Gene expression in HepG2 cancer cells (in vitro)
Description: as §1, §2, §3, §6, §4, §5

ZFP64 [17] = test: Gene expression in HepG2 cancer cells (in vitro)
Description: as §1, §2, §3, §6, §4, §5

HIST2H4A/B [18] = test: Gene expression in HepG2 cancer cells (in vitro)
Description: as §1, §2, §3, §6, §4, §5

## CN(C)Cc1ccc(S(=O)(=O)n2ccc(/C=C/C(=O)NO)c2)cc1 [resminostat, (E)-3-(1-(4-((dimethylamino)methyl)phenylsulfonyl)-1H-pyrrol-3-yl)-N-hydroxyacrylamide]
DPP3 [1]; 2 h
  Expression level, DPP3: 0.57
DPP3 [1]; 5 h
  Expression level, DPP3: 0.29
KDELC2 [2]; 2 h
  Expression level, KDELC2: 0.47
KDELC2 [2]; 5 h
  Expression level, KDELC2: 0.07
18S [3]; 2 h
  Expression level, 18s (housekeeping gene): 0.83
18S [3]; 5 h
  Expression level, 18s (housekeeping gene): 0.66
CCDC43 [4]; 2 h
  Expression level, CCDC43: 0.29
CCDC43 [4]; 5 h
  Expression level, CCDC43: 0.35
GAPDH [5]; 2 h
  Expression level, GAPDH (housekeeping gene): 1.16
GAPDH [5]; 5 h
  Expression level, GAPDH (housekeeping gene): 1.38
MICALL1 [6]; 2 h
  Expression level, MICALL1: 0.30
MICALL1 [6]; 5 h
  Expression level, MICALL1: 0.10
TBP [7]; 2 h
  Expression level, TBP (housekeeping gene): 1.03
TBP [7]; 5 h
  Expression level, TBP (housekeeping gene): 1.11
ZFP64 [8]; 2 h
  Expression level, ZFP64: 0.24
ZFP64 [8]; 5 h
  Expression level, ZFP64: 0.15
HIST2H4A/B [9]; 2 h
  Expression level, HIST2H4A/B: 2.59
HIST2H4A/B [9]; 5 h
  Expression level, HIST2H4A/B: 4.11
DPP3 [10]; 2 h
  Expression level, DPP3: 0.86
DPP3 [10]; 5 h
  Expression level, DPP3: 0.72
KDELC2 [11]; 2 h
  Expression level, KDELC2: 0.84
KDELC2 [11]; 5 h
  Expression level, KDELC2: 0.54
18S [12]; 2 h
  Expression level, 18s (housekeeping gene): 0.91
18S [12]; 5 h
  Expression level, 18s (housekeeping gene): 0.87
CCDC43 [13]; 2 h
  Expression level, CCDC43: 0.70
CCDC43 [13]; 5 h
  Expression level, CCDC43: 0.46
GAPDH [14]; 2 h
  Expression level, GAPDH (housekeeping gene): 0.96
GAPDH [14]; 5 h
  Expression level, GAPDH (housekeeping gene): 1.03
MICALL1 [15]; 2 h
  Expression level, MICALL1: 0.85
MICALL1 [15]; 5 h
  Expression level, MICALL1: 0.50
TBP [16]; 2 h
  Expression level, TBP (housekeeping gene): 1.15
TBP [16]; 5 h
  Expression level, TBP (housekeeping gene): 1.12
ZFP64 [17]; 2 h
  Expression level, ZFP64: 0.46
ZFP64 [17]; 5 h
  Expression level, ZFP64: 0.19
HIST2H4A/B [18]; 2 h
  Expression level, HIST2H4A/B: 0.88
HIST2H4A/B [18]; 5 h
  Expression level, HIST2H4A/B: 1.17
